Read-outs that look alike come from different tables or passages of the source.
Assays:
[1] = tested on: AV block; assay: Drug-induced AV block: intravenous Fingolimod and/or verapamil, without and with oral 14:0 lyso PG (ECG, PR intervals); type: in vivo, guinea pigs
Method: To test this hypothesis, guinea pigs were instrumented (subcutaneous ECG leads) and exposed to increasing intravenous doses of Fingolimod and/or verapamil, without and with an oral dose of 14:0 lyso PG. ECG signals were recorded continuously for 2 hours post-dose for the AV blockers Fingolimod and verapamil. PR intervals were measured following the infusion of Fingolimod. Measurements of PR were stopped when the P wave disconnected from the QRS complexes, indicating 3rd degree AV block.
Guinea pigs exposed to an intravenous infusion of Fingolimod alone transitioned to 1st degree AV block as of a dose of 15 μg/kg, which rapidly progressed to a Mobitz Type-1, 2nd-degree AV block at 20 μg/kg, and finally progressed to 3rd degree AV block as of a dose of 23 μg/kg.
The cohort of guinea pigs exposed to verapamil received an i.v. injection of 0.5 mg/kg, followed 60 minutes later by an intravenous infusion of Fingolimod. A 1st-degree AV block appeared at a dose of 7 μg/kg, changed to a Mobitz-Type-1 2nd degree AV block at 10 μg/kg, and transitioned to 3rd-degree dissociation between P waves and QRS complexes as of 45 μg/kg.
The third cohort of animals received an initial oral gavage of 1.0 mg/kg 14:0 lyso PG, followed 60 minutes later by an intravenous dose of 0.5 mg/kg verapamil. Sixty (60) minutes post-verapamil, Fingolimod was infused into the animals as described above. […] A Mobitz-Type-2 AV block appeared in 2 out of 6 animals with P-QRS dissociation observed at a dose of 51 μg/kg in those two animals, and at 300 μg/kg in the rest of the animals in the cohort.

[2] = tested on: QTc prolongation; assay: QTc prolongation by increasing oral doses of moxifloxacin, without or with concomitant 14:0 lyso PG
[3] = tested on: Moxifloxacin-induced QTc prolongation; assay: Cardiac response testing: protection against Moxifloxacin-induced QTc prolongation (ECG telemetry); type: in vivo, adult male Hartley guinea pigs; conditions: for inhibition in vivo at 2 mg/kg: Cavia porcellus, po; for Maximal prolongation: QTc; for Onset of protection / Time of maximal protection / Duration of complete protection: single oral 2 mg/kg test compound with oral moxifloxacin; for Duration of complete protection: 6 h recording
Method: Efficacy evaluation of the compounds of the present invention involved ECG measurements of adult male Hartley guinea pigs wherein PR, QRS, QT, QTc, JT, RR were recorded. In typical experiments, subcutaneous Kaha TR50B bio potential telemeters were surgically implanted in adult male Hartley guinea pigs weighing 300 to 350 g at enrollment. One lead was sutured to the apex of the heart, while another was sutured to the side of the aorta. The animals were allowed to recover from surgery for 5 days prior to being returned to the testing colony. Following recovery, animals were subjected to two rounds of evaluation as follows:
The animals were then returned to their housing to washout the drug over 5 to 7 days.
ECGs were acquired continuously for 6 hours. The animals were then returned to their housing to washout the drug over 5 to 7 days.
ECG analysis over 5 minutes pre-dose and 6 hours post dose consisted in was automated based on pattern recognition algorithms. The analyzed data were binned into 5-minute segments. Intervals such as PR, QRS, QT, QTc, JT and RR were analyzed automatically using AD Instruments LabChart Pro v8. The accuracy of the measurements was verified manually using digital cursors by randomly selecting 3 to 5 segments at any given time postdose. […] The frequency of arrhythmia was quantified and expressed as “% of ECG time spent in abnormal sinus rhythm over entire duration of the recording”.

[4] = oral 1.0 mg/kg 14:0 lyso PG, then verapamil 0.5 mg/kg i.v., then Fingolimod infusion
[5] = 1 h, read-out: Protection at 1 h post dose
[6] = 2 h, read-out: Protection at 2 h post dose
[7] = 4 h, read-out: Protection at 4 h post dose
[8] = 6 h, read-out: Protection at 6 h post dose
[9] = test compound 2 mg/kg oral given with moxifloxacin
[10] = i.v. verapamil 0.5 mg/kg 60 minutes before Fingolimod infusion
[11] = intravenous infusion of Fingolimod alone

Row | SMILES | inhibition in vivo at 2 mg/kg [3, 5] [%] | inhibition in vivo at 2 mg/kg [3, 6] [%] | inhibition in vivo at 2 mg/kg [3, 7] [%] | inhibition in vivo at 2 mg/kg [3, 8] [%] | Maximal prolongation [3, 9] [ms] | Onset of protection [3] [h] | Time of maximal protection [3] [h] | Duration of complete protection [3] [h] | other results
1 | CCCCCCCCCCCCCC(=O)OC[C@@H](O)COP(=O)(O)OCC(O)CO (mixture of isomers) [14:0 lyso PG, 1-myristoyl-2-hydroxy-sn-glycero-3-phospho-(1′-rac-glycerol)] |  |  |  |  |  |  |  |  | Fingolimod dose at P-QRS dissociation, rest of the animals in the cohort [1, 4]: 0.3 mg/kg; animals in which a Mobitz-Type-2 AV block appeared [1, 4]: 2 out of 6; Fingolimod dose at P-QRS dissociation, the two animals with Mobitz-Type-2 AV block ([1]; oral 1.0 mg/kg 14:0 lyso PG, then verapamil 0.5 mg/kg i.v., then Fingolimod infusion, 2 out of 6 animals): 0.051 mg/kg; Fingolimod dose at which 1st-degree AV block appeared ([1]; oral gavage 1.0 mg/kg 14:0 lyso PG, 60 min later i.v. verapamil 0.5 mg/kg, 60 min later Fingolimod infusion): 0.2 mg/kg; shift in the QTc-dose response of Moxifloxacin ([2]; concomitant dose of 14:0 lyso PG): statistically significant right-shift; changes in QTc ([2]; concomitant dose of 14:0 lyso PG with moxifloxacin): no, or very little, changes in QTc
2 | CCCCCCCCCCCCCC(=O)OC[C@H](COP(=O)([O-])OCC(COC(C)=O)OC(C)=O)OC(=O)CCCCCCCCCCCCC.[Na+] (stereo partly drawn) [Compound 1, Sodium (R)-2,3-bis(tetradecanoyloxy)propyl (2,3-diacetoxypropyl) Phosphate] | 118 | 122 | 100 | 116 | 0 | 1 | 2 | 6 | 
3 | CCCCCCCCCCCCCC(=O)OC[C@H](COP(=O)([O-])OCC(COC(=O)OCC)OC(=O)OCC)OC(=O)CCCCCCCCCCCCC.[Na+] (stereo partly drawn) [Compound 2, Sodium 2,3-bis((ethoxycarbonyl)oxy)propyl ((R)-2,3-bis (tetra decanoyloxy)propyl) Phosphate] | 95 | 88 | 22 | 90 | 4 | 1 | 2 | 4 | 
4 | CCCCCCCCCCCCCCCCCC1OCC(COP(=O)([O-])OC[C@@H](COC(=O)CCCCCCCCCCCCC)OC(=O)CCCCCCCCCCCCC)O1.[Na+] (stereo partly drawn) [Compound 4, Sodium (R)-2,3-bis (tetradecanoyloxy)propyl ((2-heptadecyl-1,3-dioxolan-4-yl)methyl) Phosphate] | 95 | 88 | 22 | 90 | 8 | 1 | 2 | 4 | 
5 | CCCCCCCCCCCCCCCC1OCC(COP(=O)([O-])OC[C@@H](COC(=O)CCCCCCCCCCCCC)OC(=O)CCCCCCCCCCCCC)O1.[Na+] (stereo partly drawn) [Compound 5, Sodium (R)-2,3-bis(tetradecanoyloxy)propyl ((2-pentadecyl-1,3-dioxolan-4-yl)methyl) Phosphate] | 35 | 113 | 126 | 176 | 0 | 2 | 2 | 6 | 
6 | CCCCCCCCCCCCCC(=O)OC[C@H](COP(=O)([O-])OCC1COC(CCCCC)O1)OC(=O)CCCCCCCCCCCCC.[Na+] (stereo partly drawn) [Compound 6, Sodium (R)-2,3-bis(tetradecanoyloxy)propyl ((2-pentyl-1,3-dioxolan-4-yl)methyl) Phosphate] | 74 | 110 | 115 | 138 | 3 | 1 | 2 | 6 | 
7 | CCCCCCCCCCCCCC(=O)OC[C@H](COP(=O)([O-])OCC(COC(=O)CCC)OC(=O)CCC)OC(=O)CCCCCCCCCCCCC.[Na+] (stereo partly drawn) [Compound 7, Sodium 2,3-bis(butyryloxy)propyl ((R)-2,3-bis(tetradecanoyloxy)propyl) Phosphate] | 83 | 100 | 119 | 147 | 4 | 1 | 2 | 6 | 
8 | CCCCCCCCCCCCCC(=O)OC[C@H](COP(=O)([O-])OCC(COC(=O)CC(C)C)OC(=O)CC(C)C)OC(=O)CCCCCCCCCCCCC.[Na+] (stereo partly drawn) [Compound 8, Sodium 2,3-bis((3-methylbutanoyl)oxy)propyl ((R)-2,3-bis(tetradecanoyloxy)propyl) Phosphate] | 74 | 97 | 100 | 132 | 2 | 1 | 2 | 6 | 
9 | CCCCCCCCCCCCCC(=O)OC[C@H](COP(=O)([O-])OCC(COC(=O)C(C)C)OC(=O)C(C)C)OC(=O)CCCCCCCCCCCCC.[Na+] (stereo partly drawn) [Compound 9, Sodium 2,3-bis(isobutyryloxy)propyl ((R)-2,3-bis(tetradecanoyloxy)propyl) Phosphate] | 91 | 94 | 100 | 116 | 3 | 1 | 2 | 6 | 
10 | CCCCCCCCCCCCCC(=O)OC[C@H](COP(=O)([O][MgH])OCC(COC(=O)OCC)OC(=O)OCC)OC(=O)CCCCCCCCCCCCC (stereo partly drawn) [Compound 10, magnesium-2,3-bis((ethoxycarbonyl)oxy)propyl((R)-2,3-bis(tetradecanoyloxy)propyl) Phosphate] |  |  |  |  |  | 1 | 2 | 6 | Protection at 1 h post dose ([3]; percent of Moxifloxacin effect, single oral 2 mg/kg test compound concomitantly with oral moxifloxacin 20 mg/kg, 1 h post dose): 83%
11 | CCCCCCCCCCCCCC(=O)OC[C@H](COP(=O)([O][MgH])OCC(COC(=O)OCC)OC(=O)OCC)OC(=O)CCCCCCCCCCCCC (stereo partly drawn) [Compound 11, calcium-2,3-bis((ethoxycarbonyl)oxy)propyl ((R)-2,3-bis(tetradecanoyloxy)propyl) Phosphate] |  |  |  |  |  | 1 | 2 | 6 | inhibition in vivo at 2 mg/kg ([3]; 1 h, read-out: Protection at 1 h post dose, percent of Moxifloxacin effect, single oral 2 mg/kg test compound concomitantly with oral moxifloxacin 20 mg/kg, 1 h post dose): 83%; inhibition in vivo at 2 mg/kg ([3]; 2 h, read-out: Protection at 2 h post dose, percent of Moxifloxacin effect, single oral 2 mg/kg test compound concomitantly with oral moxifloxacin 20 mg/kg, 2 h post dose): 94%; inhibition in vivo at 2 mg/kg ([3]; 4 h, read-out: Protection at 4 h post dose, percent of Moxifloxacin effect, single oral 2 mg/kg test compound concomitantly with oral moxifloxacin 20 mg/kg, 4 h post dose): 91%; inhibition in vivo at 2 mg/kg ([3]; 6 h, read-out: Protection at 6 h post dose, percent of Moxifloxacin effect, single oral 2 mg/kg test compound concomitantly with oral moxifloxacin 20 mg/kg, 6 h post dose): 116%; Maximal prolongation ([3]; test compound 2 mg/kg oral given with moxifloxacin, 2 mg/kg): 8 ms
12 | CCCCCCCCc1ccc(CCC(N)(CO)CO)cc1 [Fingolimod] |  |  |  |  |  |  |  |  | Fingolimod dose at 1st-degree AV block [1, 10]: 0.007 mg/kg; Fingolimod dose at 3rd-degree dissociation between P waves and QRS complexes [1, 10]: 0.045 mg/kg; Fingolimod dose at Mobitz-Type-1 2nd degree AV block [1, 10]: 0.01 mg/kg; Fingolimod dose at 1st degree AV block [1, 11]: 0.015 mg/kg; Fingolimod dose at 3rd degree AV block [1, 11]: 0.023 mg/kg; Fingolimod dose at Mobitz Type-1, 2nd-degree AV block [1, 11]: 0.02 mg/kg
13 | COc1c(N2C[C@@H]3CCCN[C@@H]3C2)c(F)cc2c(=O)c(C(=O)O)cn(C3CC3)c12 [Moxifloxacin, reference compound] |  |  |  |  |  |  |  |  | Maximal prolongation ([3]; Moxifloxacin alone, column head 40 mg/kg): 29 ms

Reference: patent US11643424B2, “Cardiopathy-reducing phosphodiester lipids” (Signpath Pharma, Inc., priority 2018, dated 2023)
